The record followed here is ChEMBL document CHEMBL3593219, “Sesquiterpenes with TRAIL-resistance overcoming activity from Xanthium strumarium” (Bioorg Med Chem, 2015).

For data set [1], the system named is AGS. Description: Inhibition of TRAIL-resistance in human AGS cells assessed as inhibition of cell viability at 16 uM incubated for 24 hrs in presence of 100 ng/ml TRAIL by FMCA method relative to TRAIL alone. Format: functional.
Data set [2] has as its system AGS. Kind of data set: Inhibition of TRAIL-resistance in human AGS cells assessed as inhibition of cell viability at 24 uM incubated for 24 hrs in presence of 100 ng/ml TRAIL by FMCA method relative to TRAIL alone. Format: functional.
Data set [3] deals with AGS. Kind of data set: Inhibition of TRAIL-resistance in human AGS cells assessed as inhibition of cell viability at 8 uM incubated for 24 hrs in presence of 100 ng/ml TRAIL by FMCA method relative to TRAIL alone. Format: functional.
The subject of data set [4] is AGS. Description: Increase in DR5 protein expression in human AGS cells at 8 uM incubated for 3 to 12 hrs by Western blotting method. The settings on record: TDE = time-dependent effect. Type of data set: functional, cell-based. On the technique in general: In western blotting, separated proteins are transferred to a membrane and probed.
The subject of data set [5] is AGS. Kind of data set: Increase in CHOP protein expression in human AGS cells incubated for 24 hrs by Western blotting method. Type of data set: functional, cell-based.
Data set [6] deals with AGS. Kind of data set: Increase in caspase-3 protein expression in human AGS cells at 8 uM incubated for 24 hrs in presence of 100 ng/ml TRAIL by Western blotting method. Type of data set: functional.
The test system of data set [7] is AGS. Kind of data set: Increase in Bax protein expression in human AGS cells at incubated for 24 hrs by Western blotting method. Type of data set: functional, cell-based.
In data set [8] the test system is AGS. Description: Increase in cleaved caspase-8 protein expression in human AGS cells at 8 uM incubated for 24 hrs in presence of 100 ng/ml TRAIL by Western blotting method relative to TRAIL alone. Type of data set: functional.
Data set [9] concerns AGS. Description: Increase in caspase-3 protein expression in human AGS cells at 8 uM incubated for 24 hrs by Western blotting method. Type of data set: functional.
For data set [10], the system named is AGS. Description: Increase in caspase-3 protein expression in human AGS cells incubated for 24 hrs by Western blotting method. Type of data set: functional, cell-based.
Data set [11] deals with AGS. Kind of data set: Increase in cleaved caspase-9 protein expression in human AGS cells at 4 to 12 uM s by Western blotting method. Format: functional, cell-based.
Data set [12] concerns AGS. Description: Increase in cleaved caspase-9 protein expression in human AGS cells at 8 uM incubated for 24 hrs in presence of 100 ng/ml TRAIL by Western blotting method relative to TRAIL alone. Format: functional.
Data set [13] concerns AGS. Description: Inhibition of TRAIL-resistance in human AGS cells assessed as inhibition of cell viability at 4 uM incubated for 24 hrs in presence of 100 ng/ml TRAIL by FMCA method relative to TRAIL alone. Type of data set: functional.
The test system of the next data set is DLD-1. Kind of data set: Inhibition of TRAIL-resistance in human DLD1 cells assessed as inhibition of cell viability at 4 to 12 uM incubated for 24 hrs in presence of 100 ng/ml TRAIL by FMCA method relative to TRAIL alone. Format: functional, cell-based.
The subject of data set [14] is AGS. Description: Increase in DR5 protein expression in human AGS cells incubated for 24 hrs by Western blotting method. Type of data set: functional, cell-based.
Data set [15] has as its system AGS. Description: Increase in DR4 protein expression in human AGS cells incubated for 24 hrs by Western blotting method. Type of data set: functional, cell-based.
Data set [16] has as its system AGS. Description: Increase in cleaved caspase-9 protein expression in human AGS cells at 8 uM incubated for 24 hrs in presence of 100 ng/ml TRAIL by Western blotting method. Format: functional.
Data set [17] relates to AGS. Kind of data set: Decrease in Bcl2 protein expression in human AGS cells incubated for 24 hrs by Western blotting method. Type of data set: functional, cell-based.
Data set [18] concerns AGS. Description: Increase in cleaved caspase-8 protein expression in human AGS cells at 8 uM incubated for 24 hrs by Western blotting method. Format: functional.
Data set [19] relates to AGS. Description: Increase in cleaved caspase-8 protein expression in human AGS cells at 8 uM incubated for 24 hrs in presence of 100 ng/ml TRAIL by Western blotting method. Format: functional.
The next data set concerns DU-145. Description: Inhibition of TRAIL-resistance in human DU145 cells assessed as inhibition of cell viability at 4 to 12 uM incubated for 24 hrs in presence of 100 ng/ml TRAIL by FMCA method relative to TRAIL alone. Type of data set: functional, cell-based.
The next data set has as its system MCF7. Description: Inhibition of TRAIL-resistance in human MCF7 cells assessed as inhibition of cell viability at 4 to 12 uM incubated for 24 hrs in presence of 100 ng/ml TRAIL by FMCA method relative to TRAIL alone. Type of data set: functional, cell-based.
For another data set, the system named is HeLa. Kind of data set: Inhibition of TRAIL-resistance in human HeLa cells assessed as inhibition of cell viability at 4 to 12 uM incubated for 24 hrs in presence of 100 ng/ml TRAIL by FMCA method relative to TRAIL alone. Format: functional, cell-based.
The test system of the next data set is HEK293. Description: Inhibition of TRAIL-resistance in HEK293 cells assessed as inhibition of cell viability at 4 to 8 uM incubated for 24 hrs in presence of 100 ng/ml TRAIL by FMCA method relative to TRAIL alone. Format: cell-based. The settings on record: human, hek293, 24 h.
Data set [20] concerns AGS. Kind of data set: Increase in p53 protein expression in human AGS cells incubated for 24 hrs by Western blotting method. Type of data set: functional, cell-based.
Data set [21] has as its system AGS. Description: Increase in caspase-3 protein expression in human AGS cells at 8 uM incubated for 24 hrs in presence of 100 ng/ml TRAIL by Western blotting method relative to TRAIL alone. Type of data set: functional.
In data set [22] the test system is AGS. Kind of data set: Increase in DR4 protein expression in human AGS cells at 8 uM incubated for 3 to 12 hrs by Western blotting method. Format: functional, cell-based. The settings on record: TDE = time-dependent effect.
The subject of data set [23] is AGS. Description: Inhibition of TRAIL-resistance in human AGS cells assessed as inhibition of cell viability at 12 uM incubated for 24 hrs in presence of 100 ng/ml TRAIL by FMCA method relative to TRAIL alone. Type of data set: functional.
Data set [24] relates to AGS. Description: Increase in cleaved caspase-8 protein expression in human AGS cells incubated for 24 hrs by Western blotting method. Type of data set: functional, cell-based.
Data set [25] concerns AGS. Kind of data set: Increase in cleaved caspase-9 protein expression in human AGS cells at 8 uM incubated for 24 hrs by Western blotting method. Type of data set: functional.
Data set [26] concerns AGS. Kind of data set: Increase in cleaved caspase-8 protein expression in human AGS cells at 16 uM incubated for 24 hrs in presence of 100 ng/ml TRAIL by Western blotting method. Format: functional.
Data set [27] has as its system AGS. Kind of data set: Increase in cleaved caspase-8 protein expression in human AGS cells at 16 uM incubated for 24 hrs by Western blotting method. Format: functional.
Data set [28] has as its system AGS. Kind of data set: Increase in cleaved caspase-8 protein expression in human AGS cells at 16 uM incubated for 24 hrs in presence of 100 ng/ml TRAIL by Western blotting method relative to TRAIL alone. Type of data set: functional.
In data set [29] the test system is AGS. Description: Increase in cleaved caspase-9 protein expression in human AGS cells at 16 uM incubated for 24 hrs in presence of 100 ng/ml TRAIL by Western blotting method relative to TRAIL alone. Type of data set: functional.
For data set [30], the system named is AGS. Kind of data set: Increase in cleaved caspase-9 protein expression in human AGS cells at 16 uM incubated for 24 hrs in presence of 100 ng/ml TRAIL by Western blotting method. Format: functional.
Data set [31] has as its system AGS. Description: Increase in cleaved caspase-3 protein expression in human AGS cells at 16 uM incubated for 24 hrs by Western blotting method. Format: functional.
Data set [32] relates to AGS. Kind of data set: Increase in cleaved caspase-9 protein expression in human AGS cells at 16 uM incubated for 24 hrs by Western blotting method. Format: functional.
In data set [33] the test system is AGS. Description: Increase in cleaved caspase-3 protein expression in human AGS cells at 16 uM incubated for 24 hrs in presence of 100 ng/ml TRAIL by Western blotting method. Type of data set: functional.
Data set [34] has as its system AGS. Description: Increase in cleaved caspase-3 protein expression in human AGS cells at 16 uM incubated for 24 hrs in presence of 100 ng/ml TRAIL by Western blotting method relative to TRAIL alone. Format: functional.
The subject of data set [35] is AGS. Description: Inhibition of TRAIL-resistance in human AGS cells assessed as inhibition of cell viability at 20 uM incubated for 24 hrs in presence of 100 ng/ml TRAIL by FMCA method relative to TRAIL alone. Format: functional.
The test system of data set [36] is AGS. Kind of data set: Inhibition of TRAIL-resistance in human AGS cells assessed as inhibition of cell viability at 30 uM incubated for 24 hrs in presence of 100 ng/ml TRAIL by FMCA method relative to TRAIL alone. Format: functional.
Data set [37] concerns AGS. Kind of data set: Inhibition of TRAIL-resistance in human AGS cells assessed as inhibition of cell viability at 10 uM incubated for 24 hrs in presence of 100 ng/ml TRAIL by FMCA method relative to TRAIL alone. Format: functional.

Structures are written as SMILES. Calls of active or inactive are those of the source. No cut-off for these calls is given here.

Consider `C=C1C(=O)O[C@H]2C[C@H](C)C(CCC(C)O)=CC[C@H]12` (stereo partly drawn), for which the results for the “inhibition (INH)” value in the data set on AGS [1], in the data set on AGS [2] and in the data set with AGS [3] were 48%, 35% and 23%, respectively.
In the case of `C=C1C(=O)O[C@H]2C[C@H](C)C(CCC(C)=O)=CC[C@H]12`, the Activity entry in the data set on AGS [4] was “tde”; in the data set with AGS [5], “Dose-dependent effect”; with AGS [6], 100%; with AGS [7], “Dose-dependent effect”; with AGS [8], 20%; in the data set on AGS [9] it was 25%. Moreover, the Activity result in the data set on AGS [10] is “Dose-dependent effect”; in the data set on AGS [11] it was “Dose-dependent effect”; in the data set on AGS [12], 20%; in the data set on AGS [14], “Dose-dependent effect”; in the data set on AGS [15] it was “Dose-dependent effect”; with AGS [16], 100%. Further, the Activity entry in the data set with AGS [17] is “Dose-dependent effect”; in the data set on AGS [18] it was 10%; in the data set with AGS [19], 100%; in the data set on HEK293, “Non-toxic”; in the data set with AGS [20], “Dose-dependent effect”; in the data set on AGS [21], 65%. The Activity entry with AGS [22] is “tde”; in the data set with AGS [24], “Dose-dependent effect”; with AGS [25], 20%. The results for the “inhibition (INH)” value in the data set with AGS [13], with AGS [3] and in the data set on AGS [23] were 32%, 44% and 24%, respectively. Also, the inhibition result in the data set with DLD-1, in the data set with DU-145, in the data set on MCF7 and with HeLa was “Active” throughout.
For `COc1ccc(C(=O)O[C@@H]2C=C(C)CC[C@@]3(O)[C@@H](C(C)C)CC[C@]23C)cc1`, the Activity entry in the data set with AGS [5] was “Dose-dependent effect”; in the data set on AGS [7], “Dose-dependent effect”; in the data set with AGS [10], “Dose-dependent effect”; in the data set with AGS [11] it was “Dose-dependent effect”; with AGS [26], 100%; in the data set on AGS [27] it was 10%. Further, the Activity with AGS [28] is 50%; in the data set with AGS [29] it was 20%; in the data set on AGS [30], 100%; with AGS [14], “Dose-dependent effect”; with AGS [15] it was “Dose-dependent effect”; in the data set on AGS [17], “Dose-dependent effect”. Also, the Activity is 5% in the data set with AGS [31]; 15% with AGS [32]; 100% with AGS [33]; “Dose-dependent effect” in the data set with AGS [20]; 70% in the data set with AGS [34]; “Dose-dependent effect” in the data set on AGS [24]. Moreover, the “inhibition (INH)” value with AGS [1] came to 61%; in the data set on AGS [2] it was 56%; with AGS [3], 15%.
`CC(O)CCC1=CC[C@H]2[C@H](C[C@@H]1C)OC(=O)[C@H]2C` (stereo partly drawn): the entries for the “inhibition (INH)” value with AGS [35], with AGS [36] and in the data set with AGS [37] were 51%, 34% and 30%, respectively.
The matching figures for `CC(=O)CCC1=CC[C@H]2[C@H](C[C@@H]1C)OC(=O)[C@H]2C`: 61%, 36% and 19%.
